Assay results: US20170176412A1, “METHOD FOR PREDICTING OPTION OF DEPRESSION TREATMENT DRUG” (Human Metabolome Technologies Inc., priority 2014, published 2017)

How the values were obtained:
[1] = tested on: blood PEA level of depressed patient; assay: Blood PEA level of depressed patients before and after administration of SNRI or SSRI (Example 1); type: in vivo; details: average value; for Blood PEA level After administration: after administration period of about 0.5 to 7 months; for Blood PEA level Before administration: baseline of the drug group, plasma, ion chromatography fluorescent detection
Protocol: After an informed consent was given to a patient who visited the clinic of the inventors, the patient's blood was collected. The blood PEA level was measured using an ion chromatography fluorescent detection method according to the following procedure. 50 μL of plasma and 450 μL of Milli-Q water were put in an Eppendorf tube and mixed by vortexing. The mixture was transferred to an ultrafiltration filter ([…] 5 kDa cut filter, Millipore Corporation), and subjected to centrifugal filtration (4° C., 9,100×g, 2 hours) until the solution in the filter disappeared. […] As subjects, 30 patients having the blood PEA levels ranging from 0.77 to 2.62 μM were employed. As a depression treatment drug, the SSRI or SNRT shown in Table 3 was administered to the patients. The blood PEA level after the administration was measured in the same procedure as before the administration. Although the administration periods variably depended on the patients, they ranged from about 0.5 to 7 months.

[2] = tested on: blood PEA level of depressed patient; assay: Blood PEA level of depressed patients during continuous administration (Example 2); type: in vivo; details: for Blood PEA level Before administration: before administration in Example 1, patients with continuous administration; for Blood PEA level After continuous administration / Blood PEA level During continuous administration: continuous administration periods about 6 to 24 months
Protocol: Among the patients to whom the depression treatment drug was administered in Example 1, the patients who received continuous administration also after the period of Example 1 were investigated. The number of patients who received continuous administration of the SNRI was nine. On the other hand, the number of patients who received continuous administration of the SSRI was five. Although the continuous administration periods (including the administration period in Example 1) variably depended on the patients, they ranged from about 6 to 24 months. The blood PEA levels in the course of and after the end of the continuous administration of these patients were measured in the same procedure as in Example 1.
• t-test: Significant difference test of blood PEA level after continuous administration with respect to that before administration

Structure (SMILES)	Blood PEA level After administration [1] [µM]	Blood PEA level Before administration [1] [µM]	Blood PEA level Before administration [2] [µM]	Blood PEA level After continuous administration [2] [µM]	Blood PEA level During continuous administration [2] [µM]
CNCC[C@H](Oc1cccc2ccccc12)c1cccs1 [Duloxetine, duloxetine]	1.46	1.10	1.11	1.82	1.47
CN(C)CCC[C@@]1(c2ccc(F)cc2)OCc2cc(C#N)ccc21 [Escitalopram, escitalopram]	1.22	–	–	1.73	–
CCN(CC)C(=O)C1(c2ccccc2)CC1CN (stereo not drawn) [Milnacipran, milnacipran]	1.66	1.27	1.44	1.94	1.71
Fc1ccc([C@@H]2CCNC[C@H]2COc2ccc3c(c2)OCO3)cc1 [Paroxetine, paroxetine]	1.21	1.42	–	–	–
CN[C@H]1CC[C@@H](c2ccc(Cl)c(Cl)c2)c2ccccc21 [Sertraline, sertraline]	1.26	1.39	1.39	1.47	–
